Results taken from US11325937B2, “Glycoside compound and preparation method therefor, composition, application, and intermediate” (SHANGHAI HUTCHISON PHARMACEUTICALS LIMITED, priority 2018, dated 2022).

Experiments:
VEGF-A mRNA = test: Sponge implanted animal model of inflammatory angiogenesis: VEGF-A mRNA expression; assay type: in vivo, male C57/BL6 mice; conditions: for activity in promoting VEGF-A mRNA expression compared with Salvianolate (in words): positive control Salvianolate 60 mg/kg/d, sponge implanted mice
Source text: The target pro-angiogenic compounds TG-052, TG-053, TG-054, TG-028, and TG-055 obtained in Effect Example 1 that perform well at the cellular level were further screened for the active molecules that promote VEGF-A mRNA expression in the “sponge implanted animal model” of inflammatory angiogenesis. […] This model can well reflect the expression of VEGF-A mRNA in macrophages recruited around inflammation.
A sponge implanted mouse model was established following the method as described in Zhang J, Modi Y, and Yarovinsky T, et al. Macrophage β2 integrin-mediated, HuR-dependent stabilization of angiogenic factor-encoding mRNAs in inflammatory angiogenesis. [J]. American Journal of Pathology, 2012. 180(4): 1751-1760. The mice used in the present invention was male C57/BL6 mice aged 6-8 weeks and weighing 20-25 g, purchased from Shanghai SLAC Laboratory Animal Co., Ltd, Production License No: SCXK (Shanghai) 2013-0016. The compound screened in Effect Example 1 was weighed according to the amount intended to be used in two weeks, and then mixed with a gel matrix and a solvent to prepare a sustained-release gel of the compound (see Patent Application No.: CN201610168493.9 for the details of the preparation method of the sustained-release gel and the model establishment and detection methods). The specific steps were as follows. A certain amount of the compound obtained in Effect Example 1 was weighed into a 1.5 mL EP tube, and then a certain amount of poly-L-lactic acid (PLLA) with a weight average molecular weight of less than 10,000 was weighed and mixed with the compound (at a weight ratio of the compound to PLLA of 0.5:1 to 2:1). Finally a certain amount of DMSO (less than 100 microliters) was added, spun, mixed well, and then sealed with a sealing film. After continuous ultrasonication at 200 W and 25° C. for 5 h, a sustained-release gel of the compound was obtained, which was stored at 4° C. for later use.
The prepared sustained-release gel can release the drug completely within 2 weeks. The sustained-release gel and sponge were both subcutaneously implanted in the mice at the back. After 2 weeks, the sponge was taken out, and the residual tissue and fur were removed. The sponge was transferred to a cell culture plate containing 10 mL of DMEM medium containing collagenase (Collagenase:DMEM=10 mg/10 mL), cut, and incubated for 1 h in a cell incubator. Then the culture medium containing sponge debris was filtered, and the resulting filtrate was centrifuged. The supernatant was discarded, and 500 μL of Trizol reagent was added to the pellet, and mixed uniformly by blowing. Then the liquid was transferred to a 1.5 mL EP tube, and stored at −80° C. RNA was extracted according to a conventional method, and the RNA concentration was determined using a microvolume nucleic acid and protein analyzer (Nanodrop2000c). The required volume V of RNA was calculated according to the RNA concentration, and the RNA reverse transcription reaction system was prepared according to Table 1. Then RNA reverse transcription (cDNA synthesis) was carried out according to the conditions described in Table 2. The resulting cDNA was used to prepare a fluorescence quantitative qPCR reaction solution according to Table 3. The fluorescence quantitative qPCR reaction conditions were set according to Table 4, and the fluorescence quantitative PCR reaction was performed using cDNA from the reverse transcription reaction as a template. The relative expression level 2^−ΔΔCt of the target gene was calculated from the Ct value of each sample with the blank group as a control and β-Actin as an internal reference. The expression level of VEGF-A mRNA in the cells extracted from the sponge was observed after 2 weeks. […]

[1] = test system: VEGF-A mRNA expression in macrophages (RAW264.7); test: In vitro macrophage experiment: activity of compounds to promote VEGF-A mRNA expression (RT-qPCR); assay type: cell-based; conditions: Mus musculus, RAW264.7 macrophages, 3 h, relative expression, no drug = 1, read-out: Expression level of VEGF-A mRNA; for fold induction at 500 µM: 0.5 mM; for fold induction at 1000 µM: 1 mM; for fold induction at 2000 µM: 2 mM; for fold induction at 3000 µM: 3 mM; for fold induction at 4000 µM: 4 mM
Outline: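 RAW264.7 macrophages were exposed to test compounds at various concentrations for 3 h at 37° C. VEGF-A mRNA was measured by SYBR Green RT-qPCR, normalized to β-Actin, and expressed as 2^−ΔΔCt relative to untreated cells (=1). Activity is the maximal fold induction, with ≥4 as hit criterion.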

[2] = test system: rats with middle cerebral artery occlusion (MCAO); test: Acute cerebral infarction model in rats with middle cerebral artery occlusion (MCAO); assay type: in vivo, male SD rats; conditions: Rattus norvegicus, ip, 72 h, MCAO, intraperitoneal injection, TTC staining after 3 days, read-out: ED50 for infarction inhibition rate (%)
Source text: (§1) After obtaining the active molecules that can promote the expression of VEGF-A mRNA in the animal model of inflammatory angiogenesis, a rat model of cerebral infarction was used for further verification. Following the method as described in Longa, E. Z., Longa, E. Z., Weinstein, P. R., Carlson, S. & Commin, R. Reversible middle cerebral artery occlusion without craniectomy in rats. [J]. Stroke, 1989. 1: 84-91, an acute cerebral infarction model was established in rats with middle cerebral artery occlusion (MCAO); and following the method as described in C. dela Torre, T. Fortin, G. A. S. Park, K. S. Butler, P. Kozlowski, B. A. Pappas, H. de Socarraz, J. K. Saunders and M. T. Richard. [J]. Brain Research, 1992. 582:186-195, a chronic cerebral ischemia model was established in rats with permanent ligation of bilateral common carotid arteries (2VO). The inhibition on cerebral infarction and neuroprotection for brain injury of the active molecules screened in Effect Example 2 were verified.
The control drugs were: Edaravone (purchased from Zhejiang Shengtong Biotechnology Co., Ltd.), Clopidogrel bisulfate (purchased from Wuhan Yuancheng Gongchuang Technology Co., Ltd.), and Salvianolate (purchased from Henan Provincial People's Hospital). Clopidogrel bisulfate is a platelet aggregation inhibitor, and Edaravone is a brain protectant (free radical scavenger). The MCAO model of rats was made by the thread occlusion method. The rats used in this effect example were male SD rats weighing 280-320 grams, purchased from Shanghai SLAC Laboratory Animal Co., Ltd. Five SD (Sprague Dawley) rats in each group were administered by intraperitoneal injection, 2 h before surgery, and every 24 h after modeling.
Three days later, the brain was taken, and the rat brain was stained with TTC (2,3,5-triphenyltetrazolium chloride, to detect the cell viability) and then photographed. Infarction rate (%)=(Non-infarction area of right brain section−non-infarction area of left brain section)/total area of brain section*100%. According to t tests, *P<0.05, **P<0.01, ***P<0.001 compared with the model group (MCAO). Infarction inhibition rate (%) at different doses=(infarction rate of model group-infarction rate of treatment group)/infarction rate of model group*100%. The infarction inhibition rate at different doses was plotted, and the ED50 of the drug was calculated.
Moreover, the body weight of the rats was recorded. The rate of body weight change was calculated according to a formula: Rate of body weight change (%)=(final weight-initial weight)/[…].
Three days after the acute cerebral infarction model was established in rats with MCAO, the test rats were scored for neurological function according to the Longa nerve scoring standard.
Three days after the acute cerebral infarction model of MCAO was established in rats, the intact brain tissue was taken out, olfactory bulb and the brain tissue that is 4 mm in front of the frontal pole was removed, and the immediately adjacent brain tissue of 2 mm thick was taken for water content measurement in the brain. The water content in brain tissue is calculated by the formula: (WW−DW)/WW×100%, where WW is the wet weight and DW is the dry weight. Three days after the acute cerebral infarction model of MCAO was established in rats, the brain tissue was stained with Evans Blue (EB, a commonly used azo dye preparation) to evaluate the permeability across the blood-brain barrier (BBB), so as to evaluate the integrity of blood-brain barrier. Both experiments were tested with the optimal dose of each drug previously determined: TG-028 (5 mg/Kg), Salvianolate (20 mg/Kg), Clopidogrel bisulfate (40 mg/Kg), Edaravone (40 mg/Kg).

[3] = test system: rats with permanent ligation of bilateral common carotid arteries (2VO); test: Chronic cerebral ischemia model in rats with permanent ligation of bilateral common carotid arteries (2VO); assay type: in vivo
Source text: as §1
In the later period of the present invention, a chronic cerebral ischemia model was established in rats with permanent ligation of bilateral common carotid arteries (2VO). TG-028 (5 mg/kg) was administered to 5 rats in each group daily by intraperitoneal injection for 3 weeks. The effects of TG-028 and the control drug Edaravone (40 mg/kg) in the rat model of chronic cerebral ischemia were observed.
3 weeks after the establishment of the rat model of 2VO chronic cerebral ischemia, the Morris water maze experiment was performed on the test rats to determine the effects of drugs on animal learning and memory. The test rats were subjected to ambient positioning and memory training for 5 days. On Day 5 of the training, a positioning navigation experiment was carried out, and the duration for each group of rats from the time of entering the water from different water entry points facing the pool wall to the time of finding the platform, that is, the escape incubation period, was recorded. On Day 6, the platform was removed and a space exploration experiment was carried out. The swimming time of the rats in the target quadrant, the dwell time in the target quadrant, the distance in the target quadrant, and the number of passes through the platform were recorded in 120 s from the time of entering water from a quadrant opposing the target quadrant. The results of the water maze positioning and navigation experiment are shown in FIG. 8 (where Sham is a sham operation group).
After permanent ligation of the bilateral common carotid arteries, a 5-day positioning training was carried out, and […] Morris water maze space exploration experiment was performed after the training.

SMILES | expression of VEGF-A mRNA (in words) (VEGF-A mRNA; various doses, alone, FIG. 19) | fold induction at 100 µM ([1]; 0.1 mM) | fold induction at 500 µM [1] | fold induction at 1000 µM [1] | fold induction at 2000 µM [1] | fold induction at 3000 µM [1] | activity in promoting VEGF-A mRNA expression compared with Salvianolate (in words) (VEGF-A mRNA; 2 weeks) | fold induction at 4000 µM [1] | ED50 [2] [mg/kg] | HE staining and Nissl staining of brain sections, hippocampal CA3 neurons (in words) ([3]; 3 weeks after chronic cerebral ischemia, compared with 2VO+NaCl, FIG. 10) | Morris water maze positioning and navigation: escape incubation period and total distance (in words) ([3]; TG-028 5 mg/kg, Edaravone 40 mg/kg, 3 weeks of administration, FIG. 8) | Morris water maze space exploration: number of passes through the platform compared with 2VO+NaCl group ([3]; TG-028 5 mg/kg, Edaravone 40 mg/kg, 3 weeks, FIG. 9) | change in body weight compared with sham operation group (in words) ([3]; TG-028 5 mg/kg, Edaravone 40 mg/kg, i.p. daily, after 1 week, FIG. 7) | increase of expression level of VEGF-A mRNA compared with blank control without drugs (VEGF-A mRNA; 41.37 mg/kg/d, sustained-release gel, 2 weeks, mice)
OC[C@H]1O[C@@H](OCCc2ccc(O)cc2)[C@H](O)[C@@H](O)[C@@H]1O [TG-056, salidroside, reference compound] | very low expression of VEGF-A mRNA | 0.72 | 1.74 | 2.24 | 6.7 | 2.31 | – | – | – | – | – | – | – | –
COc1ccc(CCO[C@@H]2O[C@H](CO)[C@@H](O)[C@H](O)[C@H]2O)cc1 [TG-053] | – | – | 11.2 | 13.4 | 6.82 | 1.32 | slightly lower activity in promoting the VEGF-A mRNA expression | 1.8 | – | – | – | – | – | –
CC1=NN(c2ccccc2)C(=O)C1 [Edaravone, reference compound] | – | – | – | – | – | – | – | – | 25.7 | cell morphology in the 2VO+Edaravone group is also improved | different from those of the 2VO+NaCl group | no significant difference | no significant weight increase compared with the sham operation group | –
COc1ccc(CO[C@@H]2O[C@H](CO)[C@@H](O)[C@H](O)[C@H]2O)cc1 [TG-052] | – | – | 19.7 | 0.93 | 2.64 | 2.69 | comparable to that of Salvianolate | 3.51 | – | – | – | – | – | about 3 times
